Results reported in patent US6376426B1, “Herbicidal 3-(heterocycl-1-yl)-uracils” (BASF Aktiengesellschaft, priority 1999, dated 2002).

Legend:
Type in all cases: in vivo
Triticum aestivum [1] = assay: Pre-emergence herbicidal test, TRZAW; design: key: A rating 0 indicates growth as untreated control; a rating 9 indicates death; settings: 21 days after spraying
Description: (§1) To evaluate their herbicidal activity, compounds according to the invention are tested using a representative range of plants:
(§2) The pre-emergence tests involve spraying a liquid formulation of the compound onto the soil in which the seeds of the plant species mentioned above has recently been sown.
(§3) The soil used in the tests is a prepared horticultural loam. The formulations used in the tests are prepared from solutions of the test compounds in acetone containing 0.4% by weight of an alkylphenol/ethylene oxide condensate available under the trade mark TRITON X-155. […] In these tests untreated sown soil are used as controls.
(§4) The herbicidal effects of the test compounds are assessed visually twenty-one days after spraying the foliage and the soil and are recorded on a 0-9 scale. A rating 0 indicates growth as untreated control, a rating 9 indicates death. An increase of 1 unit on the linear scale approximates to a 10% increase in the level of effect.

Hordeum vulgare [2] = assay: Pre-emergence herbicidal test, HORVW; design: key: A rating 0 indicates growth as untreated control; a rating 9 indicates death; settings: 21 days after spraying
Description: as §1, §2, §3, §4

Zea mays [3] = assay: Pre-emergence herbicidal test, ZEAMX; settings: PRE, 21 days after spraying
Description: as §1, §2, §3, §4

Glycine max [4] = assay: Pre-emergence herbicidal test, GLXMA; design: key to herbicidal effect (0-9 scale) GLXMA / herbicidal rating GLXMA: A rating 0 indicates growth as untreated control; a rating 9 indicates death; settings: PRE, 21 days after spraying
Description: as §1, §2, §3, §4

Setaria viridis [5] = assay: Pre-emergence herbicidal test, SETVI; settings: PRE, 21 days after spraying
Description: as §1, §2, §3, §4

Echinochloa crus-galli [6] = assay: Pre-emergence herbicidal test, ECHCG; settings: 21 days after spraying
Description: as §1, §2, §3, §4

Alopecurus myosuroides [7] = assay: Pre-emergence herbicidal test, ALOMY; settings: PRE, 21 days after spraying
Description: as §1, §2, §3, §4

Ipomoea hederacea [8] = assay: Pre-emergence herbicidal test, IPOHE; settings: 21 days after spraying
Description: as §1, §2, §3, §4

Galium aparine [9] = assay: Pre-emergence herbicidal test, GALAP; design: key to herbicidal effect (0-9 scale) GALAP / herbicidal rating GALAP: A rating 0 indicates growth as untreated control; a rating 9 indicates death; settings: PRE, 21 days after spraying
Description: as §1, §2, §3, §4

Abutilon theophrasti [10] = assay: Pre-emergence herbicidal test, ABUTH; settings: PRE, 21 days after spraying
Description: as §1, §2, §3, §4

Stellaria media [11] = assay: Pre-emergence herbicidal test, STEME; settings: PRE, 21 days after spraying
Description: as §1, §2, §3, §4

Matricaria inodora [12] = assay: Pre-emergence herbicidal test, MATIN; settings: PRE, 21 days after spraying
Description: as §1, §2, §3, §4

Triticum aestivum [13] = assay: Post-emergence herbicidal test, TRZAW; settings: POST, 21 days after spraying
Description: as §1
(§5) […] After spraying, the plants are placed on greenhouse benches and are cared for in the usual manner, commensurate with conventional greenhouse practices.
as §4

Hordeum vulgare [14] = assay: Post-emergence herbicidal test, HORVW; settings: 21 days after spraying
Description: as §1
These acetone solutions are diluted with water and the resulting formulations applied at dosage levels equivalent to about 1000, 800, 400, 250 or 100 g/ha per hectare of test compound per pot. After spraying, the plants are placed on greenhouse benches and are cared for in the usual manner, commensurate with conventional greenhouse practices.
as §4

Zea mays [15] = assay: Post-emergence herbicidal test, ZEAMX; settings: 21 days after spraying
Description: as §1, §5, §4

Glycine max [16] = assay: Post-emergence herbicidal test, GLXMA; settings: 21 days after spraying
Description: as §1, §5, §4

Setaria viridis [17] = assay: Post-emergence herbicidal test, SETVI; design: key to herbicidal effect (0-9 scale) SETVI / herbicidal rating SETVI: A rating 0 indicates growth as untreated control; a rating 9 indicates death; settings: POST, 21 days after spraying
Description: as §1, §5, §4

Echinochloa crus-galli [18] = assay: Post-emergence herbicidal test, ECHCG; settings: 21 days after spraying
Description: as §1, §5, §4

Alopecurus myosuroides [19] = assay: Post-emergence herbicidal test, ALOMY; settings: 21 days after spraying
Description: as §1, §5, §4

Ipomoea hederacea [20] = assay: Post-emergence herbicidal test, IPOHE; design: key to herbicidal effect (0-9 scale) IPOHE / herbicidal rating IPOHE: A rating 0 indicates growth as untreated control; a rating 9 indicates death; settings: POST, 21 days after spraying
Description: as §1, §5, §4

Galium aparine [21] = assay: Post-emergence herbicidal test, GALAP; settings: POST, 21 days after spraying
Description: as §1, §5, §4

Abutilon theophrasti [22] = assay: Post-emergence herbicidal test, ABUTH; design: key to herbicidal effect (0-9 scale) ABUTH / herbicidal rating ABUTH: A rating 0 indicates growth as untreated control; a rating 9 indicates death; settings: POST, 21 days after spraying
Description: as §1, §5, §4

Stellaria media [23] = assay: Post-emergence herbicidal test, STEME; settings: POST, 21 days after spraying
Description: as §1, §5, §4

Matricaria inodora [24] = assay: Post-emergence herbicidal test, MATIN; settings: POST, 21 days after spraying
Description: as §1, §5, §4

## Cn1c(C(F)(F)F)cc(=O)n(-n2ccc3ccc(Br)cc32)c1=O [Example 6]
Triticum aestivum [1]; 100 g/ha
  herbicidal effect (0-9 scale) TRZAW: 0
Triticum aestivum [1]; 400 g/ha
  herbicidal effect (0-9 scale) TRZAW: 0
Hordeum vulgare [2]; 100 g/ha
  herbicidal effect (0-9 scale) HORVW: 0
Hordeum vulgare [2]; 400 g/ha
  herbicidal effect (0-9 scale) HORVW: 1
Zea mays [3]; 100 g/ha
  herbicidal effect (0-9 scale) ZEAMX: 2
Zea mays [3]; 400 g/ha
  herbicidal effect (0-9 scale) ZEAMX: 4
Glycine max [4]; 100 g/ha
  herbicidal effect (0-9 scale) GLXMA: 0
Glycine max [4]; 400 g/ha
  herbicidal effect (0-9 scale) GLXMA: 0
Setaria viridis [5]; 100 g/ha
  herbicidal effect (0-9 scale) SETVI: 5
Setaria viridis [5]; 400 g/ha
  herbicidal effect (0-9 scale) SETVI: 8
Echinochloa crus-galli [6]; 100 g/ha
  herbicidal effect (0-9 scale) ECHCG: 1
Echinochloa crus-galli [6]; 400 g/ha
  herbicidal effect (0-9 scale) ECHCG: 5
Alopecurus myosuroides [7]; 100 g/ha
  herbicidal effect (0-9 scale) ALOMY: 1
Alopecurus myosuroides [7]; 400 g/ha
  herbicidal effect (0-9 scale) ALOMY: 3
Ipomoea hederacea [8]; 100 g/ha
  herbicidal effect (0-9 scale) IPOHE: 1
Ipomoea hederacea [8]; 400 g/ha
  herbicidal effect (0-9 scale) IPOHE: 2
Galium aparine [9]; 100 g/ha
  herbicidal effect (0-9 scale) GALAP: 2
Galium aparine [9]; 400 g/ha
  herbicidal effect (0-9 scale) GALAP: 9
Abutilon theophrasti [10]; 100 g/ha
  herbicidal effect (0-9 scale) ABUTH: 6
Abutilon theophrasti [10]; 400 g/ha
  herbicidal effect (0-9 scale) ABUTH: 8
Stellaria media [11]; 100 g/ha
  herbicidal effect (0-9 scale) STEME: 1
Stellaria media [11]; 400 g/ha
  herbicidal effect (0-9 scale) STEME: 4
Matricaria inodora [12]; 100 g/ha
  herbicidal effect (0-9 scale) MATIN: 1
Matricaria inodora [12]; 400 g/ha
  herbicidal effect (0-9 scale) MATIN: 5
Triticum aestivum [13]; 100 g/ha
  herbicidal effect (0-9 scale) TRZAW: 2
Triticum aestivum [13]; 400 g/ha
  herbicidal effect (0-9 scale) TRZAW: 3
Hordeum vulgare [14]; 100 g/ha
  herbicidal effect (0-9 scale) HORVW: 3
Hordeum vulgare [14]; 400 g/ha
  herbicidal effect (0-9 scale) HORVW: 3
Zea mays [15]; 100 g/ha
  herbicidal effect (0-9 scale) ZEAMX: 2
Zea mays [15]; 400 g/ha
  herbicidal effect (0-9 scale) ZEAMX: 3
Glycine max [16]; 100 g/ha
  herbicidal effect (0-9 scale) GLXMA: 4
Glycine max [16]; 400 g/ha
  herbicidal effect (0-9 scale) GLXMA: 8
Setaria viridis [17]; 100 g/ha
  herbicidal effect (0-9 scale) SETVI: 7
Setaria viridis [17]; 400 g/ha
  herbicidal effect (0-9 scale) SETVI: 9
Echinochloa crus-galli [18]; 100 g/ha
  herbicidal effect (0-9 scale) ECHCG: 4
Echinochloa crus-galli [18]; 400 g/ha
  herbicidal effect (0-9 scale) ECHCG: 8
Alopecurus myosuroides [19]; 100 g/ha
  herbicidal effect (0-9 scale) ALOMY: 2
Alopecurus myosuroides [19]; 400 g/ha
  herbicidal effect (0-9 scale) ALOMY: 4
Ipomoea hederacea [20]; 100 g/ha
  herbicidal effect (0-9 scale) IPOHE: 8
Ipomoea hederacea [20]; 400 g/ha
  herbicidal effect (0-9 scale) IPOHE: 9
Galium aparine [21]; 100 g/ha
  herbicidal effect (0-9 scale) GALAP: 5
Galium aparine [21]; 400 g/ha
  herbicidal effect (0-9 scale) GALAP: 8
Abutilon theophrasti [22]; 100 g/ha
  herbicidal effect (0-9 scale) ABUTH: 9
Abutilon theophrasti [22]; 400 g/ha
  herbicidal effect (0-9 scale) ABUTH: 9
Stellaria media [23]; 100 g/ha
  herbicidal effect (0-9 scale) STEME: 5
Stellaria media [23]; 400 g/ha
  herbicidal effect (0-9 scale) STEME: 8
Matricaria inodora [24]; 100 g/ha
  herbicidal effect (0-9 scale) MATIN: 3
Matricaria inodora [24]; 400 g/ha
  herbicidal effect (0-9 scale) MATIN: 5
